Data on 42 compounds can be found in ChEMBL document CHEMBL1201862, “PubChem BioAssay data set” (2004).

Assay [1] relates to Streptococcus sp. 'group A'. Description: Streptococcus pyogenes SK(-)GAS viability under kanamycin – luminescence, BacTiterGlo, confirmation, counter-screen for streptokinase expression inhibitor project, dose response (AID 1900). The format is functional, organism-based. A general note: A counterscreen serves to expose hits that act by an unwanted route or on another target.

Another assay relates to Streptococcus. Description: GAS UMAA2166 growth inhibition – luminescence, BacTiterGlo, counter-screen for streptokinase expression inhibitor project, dose response (AID 1915).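 Also: potency for reduction of bacterial viability or growth.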 The format is functional, organism-based.
Another assay has as its target T1, Streptokinase A (Streptococcus pyogenes serotype M1, UniProt P10520).
T1 sequence (P10520 whole entry): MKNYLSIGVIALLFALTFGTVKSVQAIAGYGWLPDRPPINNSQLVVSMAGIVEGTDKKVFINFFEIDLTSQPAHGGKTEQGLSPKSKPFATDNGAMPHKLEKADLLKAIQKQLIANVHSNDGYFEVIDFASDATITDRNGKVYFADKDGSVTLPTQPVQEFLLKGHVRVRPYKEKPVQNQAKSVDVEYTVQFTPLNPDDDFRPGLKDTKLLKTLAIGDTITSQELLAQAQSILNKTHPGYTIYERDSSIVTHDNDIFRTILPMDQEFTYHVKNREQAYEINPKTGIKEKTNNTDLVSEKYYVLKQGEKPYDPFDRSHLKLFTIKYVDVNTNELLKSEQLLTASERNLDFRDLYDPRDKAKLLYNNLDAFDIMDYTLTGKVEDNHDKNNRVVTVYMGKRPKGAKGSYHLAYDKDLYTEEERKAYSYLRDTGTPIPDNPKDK
Description: viability-normalized secreted streptokinase activity reduction – plasminogen activation absorbance, OD405, dose response (AID 1914).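 Also: secreted streptokinase activity via plasminogen activation per viability signal from cell pellet.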 The class given is functional, Streptococcus pyogenes M1 GAS.

Another assay deals with Cytochrome P450 2D6 (Homo sapiens, UniProt P10635).
Chain of Cytochrome P450 2D6 (P10635 whole entry): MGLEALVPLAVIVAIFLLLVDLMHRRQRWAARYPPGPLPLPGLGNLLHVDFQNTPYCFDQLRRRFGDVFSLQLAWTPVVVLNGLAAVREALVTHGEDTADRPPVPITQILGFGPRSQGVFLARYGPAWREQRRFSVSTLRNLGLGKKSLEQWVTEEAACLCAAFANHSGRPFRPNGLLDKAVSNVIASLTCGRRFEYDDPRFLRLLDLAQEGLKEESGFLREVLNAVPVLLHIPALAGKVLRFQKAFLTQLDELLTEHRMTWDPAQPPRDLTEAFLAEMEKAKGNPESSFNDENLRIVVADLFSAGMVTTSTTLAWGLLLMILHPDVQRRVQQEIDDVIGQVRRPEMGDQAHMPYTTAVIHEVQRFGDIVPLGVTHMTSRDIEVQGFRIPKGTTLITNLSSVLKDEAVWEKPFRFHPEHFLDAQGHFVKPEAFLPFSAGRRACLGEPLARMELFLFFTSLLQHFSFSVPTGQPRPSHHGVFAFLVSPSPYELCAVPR
Assay [2] in a line: Trypanosoma cruzi growth suppression in host cells – NIH3T3 host cells, beta-gal luminescence, confirmation (AID 2044).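 Also: intracellular parasites grown in NIH/3T3 mouse fibroblasts as host cells; luminescent beta-galactosidase reporter signal from transgenic T. cruzi replicating inside host cells; inhibitors lower the luminescence signal.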 The class given is functional, cell-based.
Assay [3] is described as follows: NIH3T3 cell viability loss – ATP luminescence, mouse fibroblasts, counter-screen, dose response (AID 2010).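 Also: cells exposed to compound for about 90 hours before reading.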 The class given is functional, cell-based.
Another assay addresses Cytochrome P450 2C9 (Homo sapiens, UniProt P11712).

Activity calls are given as the source filed them. Rule as the data show it, for most assays here: actives have a measured EC50 and inactives only a lower limit.

Chain of Cytochrome P450 2C9 (P11712 whole entry): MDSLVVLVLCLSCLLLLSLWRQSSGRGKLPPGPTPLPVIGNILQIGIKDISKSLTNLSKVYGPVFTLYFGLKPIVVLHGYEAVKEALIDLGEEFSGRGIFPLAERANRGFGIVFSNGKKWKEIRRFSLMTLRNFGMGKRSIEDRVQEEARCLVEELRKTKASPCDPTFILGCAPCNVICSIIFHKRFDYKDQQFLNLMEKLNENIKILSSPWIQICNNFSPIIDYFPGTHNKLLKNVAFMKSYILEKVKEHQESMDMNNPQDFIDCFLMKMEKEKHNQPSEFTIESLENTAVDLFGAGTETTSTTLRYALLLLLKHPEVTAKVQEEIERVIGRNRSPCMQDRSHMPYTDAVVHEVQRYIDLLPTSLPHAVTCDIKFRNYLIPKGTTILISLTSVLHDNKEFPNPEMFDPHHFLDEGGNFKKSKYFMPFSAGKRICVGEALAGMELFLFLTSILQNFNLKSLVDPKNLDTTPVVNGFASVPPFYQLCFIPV

For the compound `CCCOc1ccc(C(=O)NC(=S)N2CCN(c3cc4c(cc3F)c(=O)c(C(=O)O)cn4CC)CC2)cc1`, the EC50 (as a rule, the concentration needed to bring the measured effect to its halfway point) is 4.62 µM (active) in assay [1] and 6.47 µM (active) in the assay with Streptococcus.

Regarding `COc1ccc(C(=O)NC(=S)Nc2ccc(N3CCOCC3)c(Cl)c2)cc1[N+](=O)[O-]`, the EC50 in assay [1] is 1.73 µM (active); on Streptokinase A, > 150 µM (not active); in the assay with Streptococcus, 19.3 µM (active).

In the case of `COc1ccc(C(=O)N2CCC3(CCN(Cc4ccccc4OC)CC3)CC2)cc1`, the AC50 (commonly the midpoint of the concentration-response curve, whichever way the signal moves) on Cytochrome P450 2D6 is 12.6 µM (inconclusive). Take `COc1ccc(-c2nc(NC(C)=O)sc2-c2ccc(OC)cc2)cc1`: the EC50 in assay [1] is 6.7 µM (active); on Streptokinase A, 3.44 µM (active); in the assay with Streptococcus, 14.6 µM (active).

Take `CC(C)CN1CCC2(CC1)CCN(C(=O)Oc1ccccc1)CC2`: the half-maximal activity concentration (AC50) at Cytochrome P450 2D6 is 20 µM (inconclusive). Regarding `COc1ccccc1CNc1ccc2c(c1)CCC2`, the EC50 in assay [2] is 2.21 µM (active); in assay [3] it was > 60 µM (not active). For the compound `CCCCCCOC(=O)/C=C/c1c(C)nc(O)nc1O`, the concentration giving a half-maximal response (EC50) in assay [1] is 0.604 µM (active); at Streptokinase A it was > 150 µM (not active); with Streptococcus, 4.6 µM (active). Consider `COc1ccc(C(=O)/C=C2/c3ccccc3CC(C)(C)N2C)cc1`, for which the AC50 at Cytochrome P450 2C9 was 20 µM (inconclusive). With `CCCCCCCNC(=O)C1(CC2CC(c3cccc(Br)c3)=NO2)CCN(C(=O)c2ccccc2)CC1` (stereo not given), the values for the concentration for a half-maximal effect (EC50) in assay [2] and in assay [3] were 2.62 µM (active) and > 60 µM (not active), respectively.

Take `CN1c2ccc([N+](=O)[O-])cc2CC2(C(=O)NC(=O)N(c3ccccc3)C2=O)C1c1ccccc1` (stereo not given): the concentration for a half-maximal effect (EC50) is 1.94 µM (active) in assay [2] and > 60 µM (not active) in assay [3]. As to `NC(=O)C1(NC(=O)[C@@H]2CC3(CC(c4cccc(NC(=O)c5cc([N+](=O)[O-])cc([N+](=O)[O-])c5)c4)=NO3)CN2C(=O)c2ccccc2)CC1` (stereo not given in full), at Cytochrome P450 2C9, the half-maximal activity concentration (AC50) was 11.2 µM (inconclusive).

As to `O=C(Nc1cccc(F)c1)N1CC2(CCNCC2)C1`, the AC50 at Cytochrome P450 2D6 is 7.94 µM (inconclusive). On the same count and under the same terms, the result for `CNc1cc(-c2ccccc2C)ncn1` reads 39.8 µM (inconclusive). Same read-out and setting: the result for `COc1cc(C=O)ccc1OCCOCCOc1ccccc1Cl` reads 20 µM (inconclusive). With `Cc1ccc(CSCC(=O)N2CCN(c3ccc(F)cc3)CC2)cc1`, the half-maximal effective concentration (EC50) in assay [2] was 2.18 µM (active); in assay [3], > 60 µM (not active). As for `COC(=O)c1cc(-c2ccc(Br)cc2)c2c(=O)[nH]c(=O)n(C)c2n1`, the 50% effective concentration (EC50) in assay [1] was 2.45 µM (active); with Streptococcus it was 5.63 µM (active). Take `COc1cc(F)ccc1CN1CCC(n2nccc2NC(=O)C2CCOC2)CC1` (stereo not given): the concentration giving a half-maximal response (EC50) (in assay [1]; at Streptokinase A; in the assay on Streptococcus) was > 150 µM (not active) in each case.

In the case of `O=C(CC(=O)c1ccncc1)c1ccccc1`, the AC50 was 1.58 µM (inconclusive) on Cytochrome P450 2D6 and 2 µM (inconclusive) on Cytochrome P450 2C9. `CCCCNC(=O)c1ccc(NC(C)=O)c(Cl)c1`: the 50% effective concentration (EC50) (in assay [1]; at Streptokinase A; in the assay with Streptococcus) was > 150 µM (not active) each time. Regarding `COc1ccc2cc3cc(C(=O)NCCN4CCN(c5ccccc5F)CC4)oc3nc2c1`, the AC50 on Cytochrome P450 2D6 was 31.6 µM (inconclusive); at Cytochrome P450 2C9 it was 22.4 µM (inconclusive). Take `CN(C)c1ccc(C2SCCN2C(=O)c2ccc([N+](=O)[O-])cc2)cc1` (stereo not given): the EC50 in assay [2] is 0.874 µM (active); in assay [3], > 30 µM (not active). As for `COc1cnc(-c2ccccc2)nc1Oc1cccc(C)c1`, the half-maximal activity concentration (AC50) at Cytochrome P450 2C9 is 39.8 µM (inconclusive). Turning to `Cc1cccc(C)c1NC(=O)C(NC=O)c1ccccc1Cl` (stereo not given), the AC50 on Cytochrome P450 2C9 is 12.6 µM (inconclusive). As for `CCn1cc([N+](=O)[O-])c(C(=O)N2N=C(c3ccc4ccccc4c3)CC2c2cc(Br)ccc2O)n1` (stereo not given), the EC50 in assay [2] is 2.19 µM (active); in assay [3], > 60 µM (inconclusive).

Regarding `CC(C)c1csc(CN2CCC(CO)(Cc3ccccc3)CC2)n1`, the concentration giving a half-maximal response (EC50) in assay [2] is 0.891 µM (active); in assay [3], > 60 µM (not active). For `CC1CCC(C(C)C)C(OC(=O)C[n+]2cc(-c3ccc(Cl)cc3)n3c2CCC3)C1` (stereo not given) the same measures were 0.144 µM (active) and > 60 µM (not active). On to `COc1ccccc1N1CC(C(=O)Nc2nnc(SCC(=O)NCC3CCCO3)s2)CC1=O` (stereo not given), for which the EC50 (in assay [1]; at Streptokinase A; in the assay with Streptococcus) was > 150 µM (not active) throughout. For `Cc1sc(NC(=O)Cc2ccc3c(c2)OCO3)nc1-c1ccc2c(c1)CCN2C(=O)c1ccccc1F`, the EC50 is 1.69 µM (active) in assay [2] and > 60 µM (not active) in assay [3]. Consider `O=C1C=C(NC(=O)Nc2ccc(Cl)c(Cl)c2)CCC1`, for which the results for the EC50 (in assay [1]; at Streptokinase A; with Streptococcus) were 18 µM (active), > 150 µM (not active) and > 150 µM (not active), respectively. Turning to `CCOC(=O)c1sc2ncnc(N3CCN(c4ccc(OC)cc4)CC3)c2c1C`, the concentration for a half-maximal effect (EC50) was 7.62 µM (active) in assay [1], > 150 µM (not active) at Streptokinase A and > 150 µM (not active) in the assay with Streptococcus. Turning to `CCc1ccc(-c2cc(C)no2)cc1S(=O)(=O)Nc1cccc(CN2CCCC2)c1`, the EC50 (in assay [1]; on Streptokinase A; in the assay with Streptococcus) was > 150 µM (not active) throughout. Take `O=c1c([N+](=O)[O-])cc(C(F)(F)F)cn1Cc1c(Cl)cccc1Cl`: the AC50 on Cytochrome P450 2D6 is 25.1 µM (inconclusive); at Cytochrome P450 2C9 it was 22.4 µM (inconclusive).

Turning to `COc1ccc([C@@H](Nc2ncccn2)c2cc3c(cc2O)OCO3)cc1`, the AC50 on Cytochrome P450 2D6 was 6.31 µM (inconclusive). Regarding `Cc1ccc(Sc2ccc(CN3CCCC3)cc2[N+](=O)[O-])cc1`, the half-maximal effective concentration (EC50) in assay [2] was 0.206 µM (active); in assay [3] it was > 60 µM (not active). As for `Cc1ccc2ncc([N+](=O)[O-])n2c1`, at Cytochrome P450 2C9, the AC50 was 0.708 µM (inconclusive). In the case of `O=C(CCCCn1c(=O)c2ccccc2n(CC(=O)NC2CCCC2)c1=O)NC1CCCC1`, on Cytochrome P450 2D6, the half-maximal activity concentration (AC50) was 14.1 µM (inconclusive). As for `C/C(=N\NC(=O)COc1ccc(C)cc1C(C)C)c1cc2ccccc2o1`, the 50% effective concentration (EC50) is 15.5 µM (active) in assay [1], 30.5 µM (active) on Streptokinase A and 24.1 µM (active) with Streptococcus. Turning to `Cc1ccc(/C(=N\O)c2oc3c(C)c4oc(=O)cc(C)c4cc3c2C)cc1`, the EC50 was 1.23 µM (active) in assay [2] and > 60 µM (not active) in assay [3]. For `COC(=O)c1sc(N/N=C/c2ccc(C(C)C)cc2)nc1C` the same measures were 2.06 µM (active) and > 60 µM (not active). Take `C/C(=N/NS(=O)(=O)c1ccc(C)cc1)c1cccc(NC(=O)c2cccc(Cl)c2)c1`: the AC50 on Cytochrome P450 2D6 is 4.47 µM (inconclusive). In the case of `CCOc1ccc(-n2c(C)cc(/C=N/N(C)C)c2C)cc1`, the EC50 in assay [2] was 0.843 µM (active); in assay [3] it was > 30 µM (not active). `O=S(=O)(N/N=C\C=C\c1ccccc1)c1ccc(Br)cc1`: the AC50 on Cytochrome P450 2D6 is 22.4 µM (inconclusive).
